Measurements taken from paper PMC4767442 (Oncotarget, 2015).

Legend:
MCF-7 cells [1] = experiment: In-vitro metabolism of the drugs in MCF-7 cells (HPLC-MS); assay type: in vitro ADME, human; conditions: MCF-7, 10 μmol·L^−1, 12 h, 37°C
Description: Breast cancer cells (MCF-7) and H9c2 heart-derived myoblasts were seeded in 100-mm Petri dishes (1,000,000 cells/dish) for 24 h/37°C. Freshly prepared stock solutions of Dp44mT and DpC in DMSO (Sigma-Aldrich, Germany) were diluted in culture medium to the required working concentration.
The cells were incubated for 12 h (37°C) with either Dp44mT or DpC at a concentration of 10 μmol·L^−1. After this incubation, the cells were harvested, washed twice with ice-cold PBS buffer, centrifuged (790 x g) and precipitated with acetonitrile (200 μL/10^6 cells) prior to the analysis. The overlaying medium was also analyzed to search for possible metabolites. […] All samples were analyzed using HPLC-MS as described below in the Section: HPLC-MS method to identify metabolites of the drugs.
To search for the metabolites, plasma was precipitated with methanol or acetonitrile (plasma/solvent ratio – 1:3, v/v), treated using solid phase extraction (SPE; Discovery DSC-PH, Supelco, PA, U.S.A.), or liquid-liquid extraction with various solvents (ethyl acetate, toluene, dichloromethane). […] These samples were then analyzed using HPLC-MS with ion trap mass analyzer implementing the settings described previously with minor modifications (for details of the analyses see Supplementary Material, part 2.1). […]

[2] = tested on: MCF-7 human breast adenocarcinoma cell line; experiment: MTT proliferation/viability assay, MCF-7; assay type: cell-based; conditions: MCF7, 72 h/37°C, mean ± S.D.
Description: (§1) The MCF-7 human breast adenocarcinoma cell line was purchased from the European Collection of Cell Cultures (U.K.). The HL-60 human promyelocytic leukemia cell line, HCT116 human colorectal carcinoma cell line, H9c2 rat heart-derived myoblast cell line and 3T3 mouse embryo fibroblast line, were obtained from the American Type Culture Collection (VA, U.S.A.). Cells were cultured in Dulbecco's modified Eagle's medium (DMEM, Lonza, Switzerland) with or without (for MCF-7 cells only) phenol red, supplemented with 10% heat-inactivated fetal bovine serum (FBS; Lonza, Switzerland), 1% penicillin/streptomycin solution (Lonza, Switzerland) and 10 mM HEPES buffer (pH 7.0-7.6; Sigma-Aldrich, Germany). The HL-60 cell line was maintained in RPMI medium (Sigma-Aldrich, Germany) supplemented with 10% heat-inactivated FBS and 1% penicillin/streptomycin solution. All cell lines were cultured in 75 cm^2 tissue culture flasks (Switzerland) at 37°C in a humidified atmosphere of 5% CO2. Sub-confluent cells or, in the case of HL-60 cells, a cell suspension, were sub-cultured every 3-4 days.
(§2) Cells were seeded in 96-well plates for 24 h/37°C at a density of 5,000 (MCF-7), 10,000 (HL-60), 2,000 (HCT116) and 10,000 (3T3 and H9c2) cells/well. For 3T3 and H9c2 cells, the medium was changed to serum- and pyruvate-free DMEM 24 h prior to the experiments. Anti-proliferative and cytotoxicity effects of the compounds were studied at different concentrations after incubations for 72 h/37°C. Viabilities of cells were determined using MTT assays (Sigma-Aldrich, Germany) according to the manufacturer's instructions on a Tecan Infinite 200M plate reader (Tecan, Austria). The proliferation/viability of treated groups was expressed as a percentage of the untreated controls (100%).

[3] = tested on: HCT116 human colorectal carcinoma cell line; experiment: MTT proliferation/viability assay, HCT116; assay type: cell-based; conditions: HCT-116, 72 h/37°C, mean ± S.D.
Description: as §1, §2

[4] = Post-preparative stability in the autosampler at 10°C; assay type: physicochemical; conditions: for decomposition on storage (in words): 24 h storage in the autosampler at 10°C; for Post-preparative stability: autosampler 10°C, 24 h
Description: The UHPLC-MS/MS methods for quantitative assays were validated with respect to selectivity, linearity, precision, accuracy, stability, recovery, matrix effects and dilution integrity (see […]
Supplementary Table 1-3). […]
Stability was assessed at low, medium and high concentration levels. Long -term stability was assessed for plasma samples at -80°C over a period of 7 days (three aliquots per level; Supplementary Table 3). […]

MCF-7 cells [5] = experiment: 59Fe mobilization from cells prelabeled with 59Fe-transferrin; assay type: cell-based, human; conditions: MCF-7 prelabeled with 59Fe-transferrin, compounds 25 μmol·L^−1, 3 h/37°C
Description: Iron chelation efficiency of the compounds at a concentration of 10 μmol·L^−1 was determined via 3 methods: (1) the calcein assay; (2) the ability of the ligands to induce ^59Fe mobilization from cells prelabeled with ^59Fe-transferrin; and (3) the efficacy of these agents to inhibit the uptake of ^59Fe from ^59Fe-transferrin [22, 38–40].
The fluorimetric calcein-AM assay was performed by established methods, as described previously. The Fe chelation efficiency of the metabolites in cells was expressed as a percentage of that of the parent chelator, Dp44mT or DpC (100%). For studies assessing the ability of these agents to induce ^59Fe mobilization and inhibit ^59Fe uptake from ^59Fe-transferrin by cells, human transferrin (Sigma-Aldrich, Germany) was labeled with ^59Fe (PerkinElmer, MA, USA) to generate ^59Fe-transferrin at a final specific activity of 500 pCi/pmol Fe, as previously described. The unbound ^59Fe was removed by exhaustive vacuum dialysis against a large excess of 0.15 M NaCl buffered to pH 7.4 with 1.4% NaHCO3 by standard methods.
To examine the ability of the studied substances to mobilize ^59Fe from MCF-7 cells or inhibit ^59Fe uptake from ^59Fe-transferrin, established techniques were utilized. For ^59Fe mobilization studies, cells were preincubated with ^59Fe-transferrin (0.75 μmol·L^−1) for 3 h/37°C, washed 4 times at 4°C on ice, and then reincubated with control medium or control medium containing the compounds (25 μmol·L^−1) for 3 h/37°C. The release of ^59Fe from the cells into the overlying medium was then examined by collecting both the cells and overlying medium and assessing ^59Fe levels using a γ-counter. For studies examining the ability of the agents to inhibit ^59Fe uptake from ^59Fe-transferrin, cells were incubated for 3 h/37°C with ^59Fe-transferrin (0.75 μmol·L^−1) in the presence or absence of the agents (25 μmol·L^−1), and then washed 4 times at 4°C on ice. The internalization of ^59Fe by cells was then assessed by incubation for 30 min/4°C with the general protease, Pronase (1 mg/mL), utilizing standard techniques. The amount of internalized ^59Fe in the presence of the agents was expressed as a percentage of ^59Fe internalized by control cells incubated in the presence of control media alone.

[6] = tested on: cancer cell lines (HL-60, MCF-7 and HCT116); experiment: MTT assay, cancer cell lines as a group; assay type: cell-based; conditions: Homo sapiens, HL-60, MCF-7, HCT116, 72 h/37°C, read-out: IC50 against cancer cells (range over cell lines)
Description: as §1, §2

[7] = tested on: 3T3 mouse embryo fibroblast line; experiment: MTT proliferation/viability assay, 3T3; assay type: cell-based; conditions: 72 h/37°C, mean ± S.D., serum- and pyruvate-free DMEM
Description: as §1, §2

[8] = high concentration level (2.105-3.115 µmol·L-1)
[9] = low concentration level (0.035-0.156 µmol·L-1)
[10] = medium concentration level (0.702-1.558 µmol·L-1)

| metabolism in cancer cells (MCF-7 cells [1]) | IC50 [2] [nM] | IC50 [3] [nM] | decomposition on storage (in words) [4] | Post-preparative stability [4, 8] [%] | Post-preparative stability [4, 9] [%] | Post-preparative stability [4, 10] [%] | IC50 [6] [nM] | Compound | 59Fe mobilization, % of cellular 59Fe (MCF-7 cells [5]) [%] | IC50 [7] [nM] |
| --- | --- | --- | --- | --- | --- | --- | --- | --- | --- | --- |
| do not undergo significant metabolism | 9 ± 2 | 6 ± 1 | No significant decomposition | 98.90 | 93.70 | 95.92 | 2 to 9 | CN(C)C(=S)NN=C(c1ccccn1)c1ccccn1 [Dp44mT, di(2-pyridyl)ketone 4,4-dimethyl-3-thiosemicarbazone] | 51 | 157 ± 51 |
| do not undergo significant metabolism | 3 ± 1 | 5 ± 1 | No significant decomposition | 107.34 | 97.48 | 95.68 | 3 to 5 | CN(C(=S)NN=C(c1ccccn1)c1ccccn1)C1CCCCC1 [DpC, di(2-pyridyl)ketone 4-cyclohexyl-4-methyl-3-thiosemicarbazone] | 44 | 412 ± 177 |
